Key:
[1] = tested on: mouse peritoneum macrophages; experiment: LPS-stimulated mouse peritoneal macrophages, cytokine analysis; format: cell-based; details: for GM-CSF, Significance @ 12 hour LPS incubation / IFNγ, Significance @ 12 hour LPS incubation / IL-1α, Significance @ 12 hour LPS incubation / IL-1β, Significance @ 12 hour LPS incubation / IL-2, Significance @ 12 hour LPS incubation / IL-4, Significance @ 12 hour LPS incubation / IL-6, Significance @ 12 hour LPS incubation / IL-7, Significance @ 12 hour LPS incubation / IL-10, Significance @ 12 hour LPS incubation / IL-12 (p70), Significance @ 12 hour LPS incubation / IL-13, Significance @ 12 hour LPS incubation / IL-17A, Significance @ 12 hour LPS incubation / KC/CXCL1, Significance @ 12 hour LPS incubation / LIX, Significance @ 12 hour LPS incubation / MCP-1, Significance @ 12 hour LPS incubation / MIP-2, Significance @ 12 hour LPS incubation / TNF-α, Significance @ 12 hour LPS incubation: P value
Protocol: This example provides an […] study to determine the effect of DA on mouse peritoneum macrophages. Peritoneal exudates were obtained from Balb/c female mice by lavage 4 days after an intraperitoneal injection of 4 ml sterile 4% thioglycollate broth. After washing with RPMI 1640 medium, the cell suspensions were centrifuged at 800 g at 4° C. for 5 min. The red blood cells were eliminated by ACK buffer and the cells were washed and resuspended in RPMI 1640 supplemented with 10% inactivated FBS, 10 mM HEPES, 2 mM glutamine, and 100 U/ml penicillin-[…] streptomycin. The peritoneal macrophages were plated in 24 well tissue culture plate (2×10^5 cells/mL/well) at 37° C. in a 5% CO2 humidified atmosphere. Macrophages were precultured in serum-free RPMI 1640 medium for 24 h to reduce mitogenic effects. Macrophages were pretreated with various concentrations of DA for 1 h prior to LPS treatment and stimulated with LPS (100 ng/mL) for 24 h. Treatment groups were: Table 4 At 12 and 24 h time points of stimulation, ˜200 ul of supernatant were removed and stored (−80° C.) for cytokine analysis ([…]). Cytokines analyzed were—GM-CSF, IFNγ, IL-1a, IL-1β, IL-2, IL-4, IL-5, IL-6, IL-7, IL-10, IL-12 (p70), IL-13, IL-17A, KC/CXCL1, LIX, MCP-1, MIP-2, TNF-α,

[2] = tested on: DIO mice (C57BL/6NTac, high fat diet); experiment: body weight study in diet-induced obese (DIO) mice, 56 days; format: in vivo, mouse
Protocol: This example provides results of a study of DA plus another compound (CQL) on body weight in diet-induced (DIO) mice. Adult C57BL/6NTac mice were fed with a high fat diet (60%). Vehicle group (N=15) were treated with distilled water by gavage BID, CQL (N=15) were treated at 50 mg/kg by gavage BID, and DA (N=15) at a dose of 92.4 mg/kg by gavage BID. The study period was for 56 days+2-3 days testing period afterward. […] Metabolic biomarkers were measured on days 28 and 56. Cytokine analysis on Days 28 and 56. Serum levels of GLP-1, GLP-2, and CCK at 1 h after dosing on Days 1 and 56, and at 2 h after dosing on Day 7 (dosing (>6 h fasting prior to dosing until after blood collection); and serum level of PPY on Day 56.

[3] = DA 92.4 mg/kg gavage BID, compared to vehicle
[4] = DA 92.4 mg/kg, CQL 50 mg/kg, gavage BID

## CC(=O)[O-].CC[N+](CC)(CC(=O)Nc1c(C)cccc1C)Cc1ccccc1 [DA, denatonium acetate]
[1]; DA 1 μM
  GM-CSF, Significance @ 24 hour LPS incubation: No sig
  IFNγ, Significance @ 24 hour LPS incubation: No sig
  IL-1α, Significance @ 24 hour LPS incubation: No sig
  IL-1β, Significance @ 24 hour LPS incubation: No sig
  IL-2, Significance @ 24 hour LPS incubation: No sig
  IL-4, Significance @ 24 hour LPS incubation: No sig
  IL-6, Significance @ 24 hour LPS incubation: No sig
  IL-7, Significance @ 24 hour LPS incubation: No sig
  IL-10, Significance @ 24 hour LPS incubation: No sig
  IL-12 (p70), Significance @ 24 hour LPS incubation: No sig
  IL-13, Significance @ 24 hour LPS incubation: No sig
  IL-17A, Significance @ 24 hour LPS incubation: No sig
  KC/CXCL1, Significance @ 24 hour LPS incubation: No sig
  LIX, Significance @ 24 hour LPS incubation: No sig
  MCP-1, Significance @ 24 hour LPS incubation: No sig
  MIP-2, Significance @ 24 hour LPS incubation: No sig
  TNF-α, Significance @ 24 hour LPS incubation: No sig
  GM-CSF, Significance @ 12 hour LPS incubation: 0.029
  IFNγ, Significance @ 12 hour LPS incubation: 0.031
  IL-1α, Significance @ 12 hour LPS incubation: 0.021
  IL-1β, Significance @ 12 hour LPS incubation: 0.023
  IL-2, Significance @ 12 hour LPS incubation: 0.005
  IL-4, Significance @ 12 hour LPS incubation: 0.009
  IL-6, Significance @ 12 hour LPS incubation: 0.096
  IL-7, Significance @ 12 hour LPS incubation: 0.024
  IL-10, Significance @ 12 hour LPS incubation: 0.045
  IL-12 (p70), Significance @ 12 hour LPS incubation: 0.017
  IL-13, Significance @ 12 hour LPS incubation: 0.038
  IL-17A, Significance @ 12 hour LPS incubation: 0.044
  KC/CXCL1, Significance @ 12 hour LPS incubation: No sig
  LIX, Significance @ 12 hour LPS incubation: No sig
  MCP-1, Significance @ 12 hour LPS incubation: No sig
  MIP-2, Significance @ 12 hour LPS incubation: 0.081
  TNF-α, Significance @ 12 hour LPS incubation: 0.059
[1]; DA 10 μM
  GM-CSF, Significance @ 24 hour LPS incubation: no sig
  IFNγ, Significance @ 24 hour LPS incubation: no sig
  IL-1α, Significance @ 24 hour LPS incubation: no sig
  IL-1β, Significance @ 24 hour LPS incubation: no sig
  IL-2, Significance @ 24 hour LPS incubation: no sig
  IL-4, Significance @ 24 hour LPS incubation: no sig
  IL-6, Significance @ 24 hour LPS incubation: no sig
  IL-7, Significance @ 24 hour LPS incubation: no sig
  IL-10, Significance @ 24 hour LPS incubation: no sig
  IL-12 (p70), Significance @ 24 hour LPS incubation: no sig
  IL-13, Significance @ 24 hour LPS incubation: no sig
  IL-17A, Significance @ 24 hour LPS incubation: no sig
  KC/CXCL1, Significance @ 24 hour LPS incubation: no sig
  LIX, Significance @ 24 hour LPS incubation: no sig
  MCP-1, Significance @ 24 hour LPS incubation: no sig
  MIP-2, Significance @ 24 hour LPS incubation: no sig
  TNF-α, Significance @ 24 hour LPS incubation: no sig
  GM-CSF, Significance @ 12 hour LPS incubation: no sig
  IFNγ, Significance @ 12 hour LPS incubation: 0.037
  IL-1α, Significance @ 12 hour LPS incubation: 0.036
  IL-1β, Significance @ 12 hour LPS incubation: 0.023
  IL-2, Significance @ 12 hour LPS incubation: 0.004
  IL-4, Significance @ 12 hour LPS incubation: 0.009
  IL-6, Significance @ 12 hour LPS incubation: 0.029
  IL-7, Significance @ 12 hour LPS incubation: 0.010
  IL-10, Significance @ 12 hour LPS incubation: 0.026
  IL-12 (p70), Significance @ 12 hour LPS incubation: 0.007
  IL-13, Significance @ 12 hour LPS incubation: 0.019
  IL-17A, Significance @ 12 hour LPS incubation: 0.024
  KC/CXCL1, Significance @ 12 hour LPS incubation: no sig
  LIX, Significance @ 12 hour LPS incubation: no sig
  MCP-1, Significance @ 12 hour LPS incubation: no sig
  MIP-2, Significance @ 12 hour LPS incubation: 0.021
  TNF-α, Significance @ 12 hour LPS incubation: 0.024
[1]; DA 100 μM
  GM-CSF, Significance @ 24 hour LPS incubation: no sig
  IFNγ, Significance @ 24 hour LPS incubation: no sig
  IL-1α, Significance @ 24 hour LPS incubation: no sig
  IL-1β, Significance @ 24 hour LPS incubation: no sig
  IL-2, Significance @ 24 hour LPS incubation: no sig
  IL-4, Significance @ 24 hour LPS incubation: no sig
  IL-6, Significance @ 24 hour LPS incubation: no sig
  IL-7, Significance @ 24 hour LPS incubation: no sig
  IL-10, Significance @ 24 hour LPS incubation: no sig
  IL-12 (p70), Significance @ 24 hour LPS incubation: no sig
  IL-13, Significance @ 24 hour LPS incubation: no sig
  IL-17A, Significance @ 24 hour LPS incubation: no sig
  KC/CXCL1, Significance @ 24 hour LPS incubation: no sig
  LIX, Significance @ 24 hour LPS incubation: no sig
  MCP-1, Significance @ 24 hour LPS incubation: no sig
  MIP-2, Significance @ 24 hour LPS incubation: no sig
  TNF-α, Significance @ 24 hour LPS incubation: no sig
  GM-CSF, Significance @ 12 hour LPS incubation: no sig
  IL-10, Significance @ 12 hour LPS incubation: 0.015
  IL-12 (p70), Significance @ 12 hour LPS incubation: 0.008
  IL-13, Significance @ 12 hour LPS incubation: 0.021
  IL-17A, Significance @ 12 hour LPS incubation: 0.042
  KC/CXCL1, Significance @ 12 hour LPS incubation: 0.022
  LIX, Significance @ 12 hour LPS incubation: no sig
  MCP-1, Significance @ 12 hour LPS incubation: no sig
  MIP-2, Significance @ 12 hour LPS incubation: 0.033
  TNF-α, Significance @ 12 hour LPS incubation: 0.033
[2]; DA 92.4 mg/kg gavage BID
  serum glucose levels: did not show a significant effect
[2]; [3]
  daily food intake at Day 14: significantly reduced
  serum CCK levels at Day 56: significantly increased
  serum GLP-1 levels at Days 7 and 56: significantly increased
  serum GLP-2 levels at Day 56: significantly increased
  serum PYY levels at Day 56: significantly increased
  serum insulin level at Day 28: significantly reduced
[2]; DA 92.4 mg/kg gavage BID, compared to vehicle and CQL
  body weight gain at day 57: significantly reduced
[2]; DA 92.4 mg/kg gavage BID, compared to vehicle, no significant difference
  serum LDL levels at days 28 and 56: noticeable decrease
[2]; [4]
  serum HbA1c level at Day 28: significantly reduced
  serum HbA1c level at Day 56: considerably increased
[2]; DA 92.4 mg/kg, CQL 50 mg/kg, gavage BID, compared to vehicle
  daily water intake at Day 28: significantly increased
[2]; day 28
  serum Eotaxin, significance (p) of increase: 0.031
  serum G-CSR, significance (p) of increase: 0.063
  serum IL-6, significance (p) of increase: 0.041
  serum IP-10, significance (p) of increase: 0.013
  serum MIG, significance (p) of increase: no sig
[2]; day 56
  serum Eotaxin, significance (p) of increase: no sig
  serum G-CSR, significance (p) of increase: 0.039
  serum IL-6, significance (p) of increase: no sig
  serum IP-10, significance (p) of increase: no sig
  serum MIG, significance (p) of increase: 0.028

Reference: patent US20220193013A1, “Pharmaceutical Composition for Treatment or Prevention of Multiple Inflammatory Disorders” (priority 2020, published 2022)
